Assay [1] concerns prostatic urethral pressure increase induced by noradrenaline. The settings on record: anaesthetised dogs, i.v.; data from Leonardi et al. 1997; cited from earlier work.
The test system of assay [2] is diastolic blood pressure. The settings on record: anaesthetised dogs, i.v.; data from Leonardi et al. 1997; cited from earlier work.
Assay [3] concerns diastolic blood pressure. In words: Lowering of diastolic blood pressure in anaesthetised dogs after i.v. administration. It counts as in vivo, dog. The method, then:
(§1) The experiments were performed according to the method of Imagawa J. et al., J. Pharmacol. Methods 22: 103-111, 1989, with substantial modifications, as follows: adult male beagle dogs, weighing 8-10 kg, were anaesthetised with pentobarbital sodium (30 mg/kg i.v. and 2 mg/kg/h i.v.), intubated and spontaneously ventilated with room air. In order to monitor systemic blood pressure (BP), a polyethylene (PE) catheter was introduced into the aortic arch through the left femoral artery. A collateral of the left femoral vein was cannulated for infusion of anaesthetic, and the right femoral vein was cannulated for administration of compounds. For intra-arterial (i.a.) injection of noradrenaline (NA), a PE catheter was introduced into the lower portion of the abdominal aorta via the right external iliac artery. Through such procedure, NA was selectively distributed to the lower urinary tract. A paramedian vertical suprapubic incision extending from the base of the pelvis to the mid-abdominal region was made and the bladder and prostate were exposed. The bladder was manually emptied with a syringe. Prostatic urethral pressure was monitored with a Mikro-tip catheter (5F) introduced into the bladder via the external urethral meatus, and withdrawn until the pressure transducer was positioned in the prostatic region of the urethra. A ligature was secured between the neck of the bladder and urethra to isolate the response of the latter and to avoid any interaction with the bladder. Another ligature was put around the Mikro-tip catheter at the external meatus, to secure the catheter itself. After a stabilising period following the surgical procedure (30 minutes), in which arterial and prostatic urethral pressure were continuously monitored as basal values, i.a. administration of NA was made at intervals of 20 minutes. The doses of NA chosen were such to produce an increase of at least 100% in urethral pressure. The test compounds were administered i.v. in a cumulative manner with intervals of 15-20 minutes between administrations. I.a. injections of NA were repeated 5 minutes after every dosing of test compound with intervals of about 10 minutes between stimulations. In order to compare the effects of the administered compound, dose/response curves (log dose transformation) were constructed by computing, at the peak effect, the percent decrease in diastolic blood pressure and the percent inhibition of the increase in urethral pressure induced by NA.

Assay [4] deals with prostatic urethral pressure increase induced by noradrenaline. Nature of the assay: Inhibition of urethral contractions induced by noradrenaline in anaesthetised dogs after i.v. administration. To be noted: for UC ID50: active dose inhibiting by 50% the urethral contractions induced by noradrenaline: i.v. administration; for DBP/UC ratio between the active doses: i.v., DBP ED25 / UC ID50. It counts as in vivo, dog. As to the method:
as §1

Assay [5] concerns the target T1, α1b-adrenoceptor (recombinant) (Homo sapiens, UniProt P35368).
T1 construct: expressed in transfected cells
T1 sequence (P35368 1-520): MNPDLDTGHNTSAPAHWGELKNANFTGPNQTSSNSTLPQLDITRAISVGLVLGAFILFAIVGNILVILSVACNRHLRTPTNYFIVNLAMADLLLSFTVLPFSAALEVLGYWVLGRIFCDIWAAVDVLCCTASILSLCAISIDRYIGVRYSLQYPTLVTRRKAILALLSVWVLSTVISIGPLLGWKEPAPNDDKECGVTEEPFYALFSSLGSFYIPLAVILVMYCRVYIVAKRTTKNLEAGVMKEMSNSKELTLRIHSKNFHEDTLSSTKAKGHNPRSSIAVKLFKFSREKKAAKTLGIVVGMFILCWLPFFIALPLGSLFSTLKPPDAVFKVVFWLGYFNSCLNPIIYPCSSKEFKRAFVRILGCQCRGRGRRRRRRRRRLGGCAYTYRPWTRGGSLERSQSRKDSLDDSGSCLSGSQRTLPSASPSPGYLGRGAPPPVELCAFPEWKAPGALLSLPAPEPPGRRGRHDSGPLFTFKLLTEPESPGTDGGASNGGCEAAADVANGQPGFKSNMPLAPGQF
In words: Radioligand binding, cloned α1b-adrenoceptor ([3H]prazosin). The settings on record: read-out: Affinity for recombinant α1b-adrenoceptor, cloned receptors (Ki). As to the method:
(§2) Determination of affinity for cloned subtypes of α1-adrenoceptor subtypes was performed in membranes from cells transfected by electroporation with DNA expressing the genes encoding each α1-adrenoceptor subtype.
(§3) Non-specific binding was determined in the presence of 10 μM phentolamine.
(§4) Incubation was stopped by addition of ice-cold Tris buffer and rapid filtration through 0.2% polyethyleneimine-pretreated Schleicher & Schuell GF52 filters.
(§5) Data were expressed as mean Ki.

Assay [6] addresses T2, α1a-adrenoceptor (recombinant) (Homo sapiens, UniProt P35348).
T2 construct: expressed in transfected cells
T2 sequence (P35348 1-466): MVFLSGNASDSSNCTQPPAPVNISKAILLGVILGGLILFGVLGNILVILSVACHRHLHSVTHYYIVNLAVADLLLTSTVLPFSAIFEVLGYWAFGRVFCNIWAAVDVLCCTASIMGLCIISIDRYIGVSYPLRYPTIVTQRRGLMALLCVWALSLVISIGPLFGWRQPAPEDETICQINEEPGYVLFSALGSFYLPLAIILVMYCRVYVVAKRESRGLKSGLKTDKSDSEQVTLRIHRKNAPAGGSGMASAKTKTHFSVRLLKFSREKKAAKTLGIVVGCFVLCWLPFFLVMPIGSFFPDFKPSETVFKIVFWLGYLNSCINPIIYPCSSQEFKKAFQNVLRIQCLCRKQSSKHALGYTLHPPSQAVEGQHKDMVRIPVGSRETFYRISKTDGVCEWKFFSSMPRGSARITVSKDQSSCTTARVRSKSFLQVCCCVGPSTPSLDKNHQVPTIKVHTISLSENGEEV
In words: Radioligand binding, cloned α1a-adrenoceptor ([3H]prazosin). The settings on record: read-out: Affinity for recombinant α1a-adrenoceptor, cloned receptors (Ki). The method, then:
as §2, §3, §4, §5

Assay [7] has as its target T3, 5HT1A-serotoninergic receptor (Homo sapiens, UniProt P08908).
T3 sequence (P08908 1-422): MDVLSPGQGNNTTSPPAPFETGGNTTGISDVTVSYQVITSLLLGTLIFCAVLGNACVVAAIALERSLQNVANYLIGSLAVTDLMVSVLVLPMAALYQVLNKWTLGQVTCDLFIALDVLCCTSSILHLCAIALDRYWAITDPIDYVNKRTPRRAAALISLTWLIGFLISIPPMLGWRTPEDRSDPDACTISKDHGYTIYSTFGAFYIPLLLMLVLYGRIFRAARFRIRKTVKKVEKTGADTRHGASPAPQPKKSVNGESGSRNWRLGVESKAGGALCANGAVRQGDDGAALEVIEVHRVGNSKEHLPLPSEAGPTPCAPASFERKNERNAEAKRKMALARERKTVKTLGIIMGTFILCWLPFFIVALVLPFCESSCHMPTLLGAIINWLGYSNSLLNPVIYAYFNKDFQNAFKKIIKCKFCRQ
In words: Radioligand binding, cloned 5-HT1A-serotoninergic receptor in HeLa membranes ([3H]8-OH-DPAT). More on the design: expressed in transfected cells; host or cells: HeLa. To be noted: cloned human 5-HT1A receptor in HeLa membranes, mean Ki, read-out: Affinity for 5-HT1A receptor, cloned receptors (Ki). As to the method: HeLa cells were grown as monolayers in Dulbecco's Modified Eagle medium (DMEM) supplemented with 10% foetal calf serum and gentamicin (100 μg/mL), 5% CO2, at 37° C. The cells were detached from the growth flask at 95% confluence by a cell scraper and were lysed in ice-cold Tris-5-mM and EDTA-5-mM buffer (pH 7.4). The homogenates were centrifuged at 40000×g×20 minutes and the membranes were resuspended in a small volume of ice-cold buffer containing Tris 5 mM and EDTA 5 mM (pH 7.4), and immediately frozen and stored at −70° C. until use.
Non-specific binding was determined in the presence of 10 μM 5-HT. The incubation was stopped by addition of ice-cold Tris buffer and rapid filtration through 0.2% polyethyleneimine-pretreated Schleicher & Schuell filters.
as §5

In assay [8] the target is T4, α1d-adrenoceptor (recombinant) (Homo sapiens, UniProt P25100).
T4 sequence (P25100 1-572): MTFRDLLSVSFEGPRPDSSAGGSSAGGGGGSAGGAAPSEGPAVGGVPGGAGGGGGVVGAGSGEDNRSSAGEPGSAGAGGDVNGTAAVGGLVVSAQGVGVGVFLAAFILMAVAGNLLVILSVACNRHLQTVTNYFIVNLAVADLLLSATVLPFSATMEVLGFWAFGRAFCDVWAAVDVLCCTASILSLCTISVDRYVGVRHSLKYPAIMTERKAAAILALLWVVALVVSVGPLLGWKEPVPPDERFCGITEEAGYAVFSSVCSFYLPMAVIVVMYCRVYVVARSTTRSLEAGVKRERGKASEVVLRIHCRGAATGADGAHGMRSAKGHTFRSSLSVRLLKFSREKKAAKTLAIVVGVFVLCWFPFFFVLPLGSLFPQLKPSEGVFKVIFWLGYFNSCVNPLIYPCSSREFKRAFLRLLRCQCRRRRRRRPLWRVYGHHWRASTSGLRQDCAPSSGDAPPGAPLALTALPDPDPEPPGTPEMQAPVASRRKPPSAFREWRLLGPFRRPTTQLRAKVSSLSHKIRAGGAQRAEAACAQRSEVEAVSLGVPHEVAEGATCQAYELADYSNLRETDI
In words: Radioligand binding, cloned α1d-adrenoceptor ([3H]prazosin). To be noted: read-out: Affinity for recombinant α1d-adrenoceptor, cloned receptors (Ki). The method, then:
as §2, §3, §4, §5

The subject of a further assay is α1-adrenergic receptor. The settings on record: background statement; cited from earlier work.
The target of assay [9] is T3, 5HT1A-serotoninergic receptor. The settings on record: background statement; cited from earlier work.

The values that follow come from patent US6403594B1, “Benzopyran derivatives” (Recordati, S.A. Chemical and Pharmaceutical Company, priority 1999, dated 2002).

The structures appear in SMILES notation. Read-outs that look alike come from different tables or passages of the source.

Regarding `COc1ccccc1N1CCN(CCCNC(=O)c2cccc3c(=O)c(C)c(-c4ccccc4)oc23)CC1` [Compound A], the “UC ID50: active dose inhibiting by 50% the urethral contractions induced by noradrenaline” value in [1] was 0.0024 mg/kg. Also, in the assay on diastolic blood pressure [2], the “DBP ED25: active dose lowering diastolic blood pressure by 25%” value was 0.243 mg/kg.
As to `Cc1c(-c2ccccc2)oc2c(C(=O)NCCCN3CCN(c4ccccc4OCC(F)(F)F)CC3)cccc2c1=O` [Example 15, 8-<3-{4-[2-(2,2,2-Trifluoroethoxy)phenyl]-1-piperazinyl}propylcarbamoyl>-3-methyl-4-oxo-2-phenyl-4H-1-benzopyran], in the assay with diastolic blood pressure [3], the “DBP ED25: active dose lowering diastolic blood pressure by 25%” value was found to be 3.001 mg/kg. The “UC ID50: active dose inhibiting by 50% the urethral contractions induced by noradrenaline” value in assay [4] came to 0.0049 mg/kg. Also, the Ki – broadly, a measure of affinity in units of concentration, obtained from inhibition or displacement – in assay [5] was 6 nM; in assay [6] it was 0.07 nM; in assay [7], 0.71 nM; in [8], 3.38 nM.
With `COc1ccc(C#N)cc1N1CCN(CCCNC(=O)c2cccc3c(=O)c(C)c(-c4ccccc4)oc23)CC1` [Example 18, 8-{3-[4-(5-Cyano-2-methoxyphenyl)-1-piperazinyl]propylcarbamoyl}-3-methyl-4-oxo-2-phenyl-4H-1-benzopyran], the “DBP ED25: active dose lowering diastolic blood pressure by 25%” value in the assay on diastolic blood pressure [3] turned out to be 1.2976 mg/kg. Further, the “UC ID50: active dose inhibiting by 50% the urethral contractions induced by noradrenaline” value in assay [4] turned out to be 0.0341 mg/kg. Besides, in [4], the “DBP/UC ratio between the active doses” value came to 38.05. The Ki was 100 nM in [5], 4.18 nM in assay [6], 677 nM in [7] and 45.4 nM in assay [8].
In the case of `Cc1c(-c2ccccc2)oc2c(C(=O)NCCCN3CCN(c4cc(Cl)ccc4OCC(F)(F)F)CC3)cccc2c1=O` [Example 22, 8-<3-{4-[5-Chloro-2-(2,2,2-trifluoroethoxy)phenyl]-1-piperazinyl}-propylcarbamoyl>-3-methyl-4-oxo-2-phenyl-4H-1-benzopyran], the “DBP ED25: active dose lowering diastolic blood pressure by 25%” value in the assay on diastolic blood pressure [3] stood at 1.266 mg/kg. The “UC ID50: active dose inhibiting by 50% the urethral contractions induced by noradrenaline” value in [4] is 0.0195 mg/kg. Besides, the “DBP/UC ratio between the active doses” value in [4] is listed as 64.92. For the same compound, the Ki in assay [5] was 1.9 nM; in assay [6] it was 0.25 nM; in assay [8], 3.07 nM.
As for `Cc1c(-c2ccccc2)oc2c(C(=O)OCCN3CCCCC3)cccc2c1=O` [Flavoxate, 3-methyl-4-oxo-2-phenyl-8-(2,N-piperidinylethoxycarbonyl)-4H-1-benzopyran], in the assay with α1-adrenergic receptor, the “Affinity for the α1-adrenergic receptor” value is listed as “practically devoid of affinity”. In addition, the “Affinity for the 5HT1A-serotoninergic receptor” value in [9] is “practically devoid of affinity”.
`CCOc1ccccc1OCCN[C@H](C)Cc1ccc(OC)c(S(N)(=O)=O)c1` [tamsulosin]: in assay [9], the “Affinity for the 5HT1A-serotoninergic receptor” value was “comparable affinity”.
